Patent US10682388B2, “Targeting of PELP1 in cancer therapy” (THE BOARD OF REGENTS OF THE UNIVERSITY OF TEXAS SYSTEM, priority 2014, dated 2020)

Columns and labels:
[1] = system: ERE-luciferase in ZR75 cells; assay: ERE-luciferase reporter gene assay in ZR75 cells transfected with PELP1 and/or G9a; type: cell-based, Human; conditions: FIG. 2D
Method: (§1) FIGS. 2A-D. (FIG. 2A) Immunoprecipitation was performed on nuclear lysates obtained from ZRPELP1 cells grown in 5% DCC for 72 hours and treated with estradiol 10^−7 M for 12 hours. PELP1 was immunoprecipitated and western blotting was performed for PELP1 and G9a expression with IgG as the control. (FIG. 2B) Various fragments of PELP1 bound to glutathione beads were incubated with recombinant G9a for 2 hours. Beads were washed, run on an SDS-PAGE gel and immunoblotted for G9a expression. GST tag alone is shown as control. (FIG. 2C) Recombinant G9a-GST was bound to glutathione beads and incubated with purified PELP1 and peptides for 2 hours. Beads were washed and run on SDS-PAGE gel. (FIG. 2D) ZR75 cells were transfected with ERE-luciferase, PELP1 and/or G9a plasmids and treated with peptide for 24 hours and estradiol 10^−7 M for 12 hours. Relative luciferase activity is shown.
Model cells were seeded in 6-well plates. After overnight incubation, the cells were transfected with ERE-Luc plasmids using fugene for 6 h. Then, 24 hours after transfection, cells were incubated in 5% DCC media for estrogen starvation and then treated with TAT or PIP1/PIP2 for an additional 24 hours and estradiol (10^−8) for 12 hours. […] Luciferase activity was measured by using the luciferase assay system (Promega, Madison, Wis.).

PELP1-G9a complex = target: T1, PELP1-G9a complex (Homo sapiens, UniProt Q8IZL8); assay: In vitro peptide competition assay, G9a-GST on glutathione beads with purified PELP1; type: binding; conditions: peptides 2, 5, 10 μM, 2 hours, FIGS. 2C, 7B, 9
T1 construct: purified bacterial, full-length PELP1; host or cells: bacteria (PELP1)
Method: as §1
FIGS. 7A-E. (FIG. 7A) Bacterial purified PELP1 was incubated with biotin-tagged peptides bound to avidin beads for one hour. Beads were washed, run on SDS-PAGE gel and probed for PELP1 expression. Input of bacterial PELP1 is shown as control. (FIG. 7B) Recombinant G9a-GST was bound to glutathione beads and incubated with purified PELP1 and peptides for 2 hours. Beads were washed and run on SDS-PAGE gel. (+2 μM, ++5 μM, +++10 μM). (FIG. 7C) ZRGST and ZRPELP1GST cells were transfected in triplicate with TopFlash β-catenin reporter and treated with TAT or PIP1 (10 μM) for 24 hours. Relative luciferase activity is shown. (FIG. 7D) MCF7vec and MCF7PELP1 cells were treated with TAT or PIP1 (10 μM) and toxicity was measured by CytoTox-Flour Cytotoxicity Assay. (FIG. 7E) ZR75 and ZR75PELP1 cells were treated with TAT, PIP1 or PIP2 for 24 hours and immunoblotted for PELP1 and ERα expression with actin as the loading control.
FIG. 9. […]
Peptides were linked to EZ-Link NHS-Biotin (Thermo Scientific) per manutfacturer's protocol. […] Beads were washed 3× with IP buffer (20 mM HEPES pH 7.9, 20% glycerol, 0.1% triton-x, 100 mM KCl), eluted with SDS-dye, and PELP1 expression was determined by western blotting. […]

ZR75 cells = assay: TUNEL assay; type: cell-based, Human; conditions: 10 μM, 24 hours, FIG. 5D
Method: FIGS. 5A-D. (FIG. 5A) ZR75vec, ZR75PELP1, MCF7vec and MCF7PELP1 cells were plated in the top of a Boyden chamber transwell, treated with TAT, PIP1 or PIP2 (10 μM) and absorbance was measured at 12 hours in triplicate. (FIG. 5B) MCF7vec, MCFP7ELP1, ZR75vec and ZR75PELP1 cells were treated in triplicate with TAT, PIP1 or PIP2 (10 μM) every 3 days, fixed with methanol on day 10 and stained with crystal violet. Average colonies per well are shown. (FIG. 5C) ZR75vec and ZR75PELP1 cells were plated in triplicate in agar with 8% RPMI with TAT, PIP1 or PIP2 (10 μM). Colonies were counted on day 14, representative images are shown on right. (FIG. 5D) ZR75 cells were plated on coverslips in triplicate and treated with TAT or PIP1 (10 μM) for 24 hours. Cells were fixed with paraformaldehyde and labeled with TUNEL and DAPI, representative images are shown on right.
ZR75 and ZR75PELP1 cells were plated on coverslips in 8% RPMI and treated with peptide for 24 hours. Cells were labeled with in situ Cell Death Detection Kit (Roche) according to manufacturer's protocol, imaged by fluorescent microscopy and quantified.

PELP1 = PELP1 (Homo sapiens, UniProt Q8IZL8); assay: Peptide pull-down assay, biotin-tagged peptides on avidin beads with nuclear lysates from ZR75 cells; type: binding; conditions: one hour, FIG. 1D
Method: FIGS. 1A-D. (FIG. 1A) Diagram for yeast two hybrid screen to identify PELP1 binding peptides. Four regions of PELP1 were tagged with the binding domain and a library of 10^6 random peptides (Clontech) were bound to an activation domain. The number of positive colonies per region of PELP1 are shown in the graph. (FIG. 1B) A proliferation assay was performed with […]1 cells plated in a 96 well plate, treated with peptide every 3 days and absorbance was measured at 7 days. (FIG. 1C) ZR75 were plated in a 6-well plate on coverslips in 8% RPMI and treated with 10 uM FITC labeled peptide for 30, 60, or 120 minutes. They were then fixed with pararformaldehyde, stained for PELP1 (red) and DAPI (blue), and imaged by confocal microscopy to monitor intracellular delivery. (FIG. 1D) ZR75 cells were starved of estrogen for 72 hours and treated with estradiol 10^-7 M for 12 hours. Nuclear lysate was incubated with biotin-tagged peptides bound to avidin beads for one hour. Beads were washed, run on SDS-PAGE gel and probed for PELP1 expression. Input of nuclear lysate is shown as control. Peptides were linked to EZ-Link NHS-Biotin (Thermo Scientific) per manutfacturer's protocol. […] Beads were washed 3× with IP buffer (20 mM HEPES pH 7.9, 20% glycerol, 0.1% triton-x, 100 mM KCl), eluted with SDS-dye, and PELP1 expression was determined by western blotting. […]

T1 sequence (Q8IZL8 2-1130, one chain of several): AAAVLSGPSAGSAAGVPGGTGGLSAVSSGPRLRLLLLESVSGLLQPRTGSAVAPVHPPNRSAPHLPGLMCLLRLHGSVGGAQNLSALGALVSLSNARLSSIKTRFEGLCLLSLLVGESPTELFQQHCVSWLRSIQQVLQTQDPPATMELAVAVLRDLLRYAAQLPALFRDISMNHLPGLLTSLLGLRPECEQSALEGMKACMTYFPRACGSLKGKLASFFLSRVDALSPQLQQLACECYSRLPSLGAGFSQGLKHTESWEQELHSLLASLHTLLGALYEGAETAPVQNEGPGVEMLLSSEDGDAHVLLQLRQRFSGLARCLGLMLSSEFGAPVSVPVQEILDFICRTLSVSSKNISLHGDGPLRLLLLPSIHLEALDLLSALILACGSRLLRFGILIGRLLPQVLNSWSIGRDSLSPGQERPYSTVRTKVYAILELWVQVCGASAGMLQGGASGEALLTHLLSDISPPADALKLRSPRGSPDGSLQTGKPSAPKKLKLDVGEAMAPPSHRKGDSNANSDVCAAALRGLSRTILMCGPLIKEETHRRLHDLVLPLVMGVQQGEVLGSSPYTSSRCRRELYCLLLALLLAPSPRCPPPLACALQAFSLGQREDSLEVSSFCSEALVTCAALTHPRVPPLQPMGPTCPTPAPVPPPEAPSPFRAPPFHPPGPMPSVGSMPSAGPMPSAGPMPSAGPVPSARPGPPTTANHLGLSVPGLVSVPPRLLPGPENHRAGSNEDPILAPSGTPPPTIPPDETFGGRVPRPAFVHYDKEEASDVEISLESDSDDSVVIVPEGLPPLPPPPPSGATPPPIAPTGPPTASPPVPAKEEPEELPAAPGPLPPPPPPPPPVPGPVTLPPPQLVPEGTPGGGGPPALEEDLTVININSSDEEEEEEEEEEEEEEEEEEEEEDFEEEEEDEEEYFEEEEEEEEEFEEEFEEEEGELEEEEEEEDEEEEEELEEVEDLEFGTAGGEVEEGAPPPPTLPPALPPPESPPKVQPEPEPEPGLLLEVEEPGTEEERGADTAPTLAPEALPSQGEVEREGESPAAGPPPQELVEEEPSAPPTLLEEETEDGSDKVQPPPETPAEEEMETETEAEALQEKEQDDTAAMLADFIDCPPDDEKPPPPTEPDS
Chain of PELP1 (Q8IZL8 whole entry, the tested form may be a part): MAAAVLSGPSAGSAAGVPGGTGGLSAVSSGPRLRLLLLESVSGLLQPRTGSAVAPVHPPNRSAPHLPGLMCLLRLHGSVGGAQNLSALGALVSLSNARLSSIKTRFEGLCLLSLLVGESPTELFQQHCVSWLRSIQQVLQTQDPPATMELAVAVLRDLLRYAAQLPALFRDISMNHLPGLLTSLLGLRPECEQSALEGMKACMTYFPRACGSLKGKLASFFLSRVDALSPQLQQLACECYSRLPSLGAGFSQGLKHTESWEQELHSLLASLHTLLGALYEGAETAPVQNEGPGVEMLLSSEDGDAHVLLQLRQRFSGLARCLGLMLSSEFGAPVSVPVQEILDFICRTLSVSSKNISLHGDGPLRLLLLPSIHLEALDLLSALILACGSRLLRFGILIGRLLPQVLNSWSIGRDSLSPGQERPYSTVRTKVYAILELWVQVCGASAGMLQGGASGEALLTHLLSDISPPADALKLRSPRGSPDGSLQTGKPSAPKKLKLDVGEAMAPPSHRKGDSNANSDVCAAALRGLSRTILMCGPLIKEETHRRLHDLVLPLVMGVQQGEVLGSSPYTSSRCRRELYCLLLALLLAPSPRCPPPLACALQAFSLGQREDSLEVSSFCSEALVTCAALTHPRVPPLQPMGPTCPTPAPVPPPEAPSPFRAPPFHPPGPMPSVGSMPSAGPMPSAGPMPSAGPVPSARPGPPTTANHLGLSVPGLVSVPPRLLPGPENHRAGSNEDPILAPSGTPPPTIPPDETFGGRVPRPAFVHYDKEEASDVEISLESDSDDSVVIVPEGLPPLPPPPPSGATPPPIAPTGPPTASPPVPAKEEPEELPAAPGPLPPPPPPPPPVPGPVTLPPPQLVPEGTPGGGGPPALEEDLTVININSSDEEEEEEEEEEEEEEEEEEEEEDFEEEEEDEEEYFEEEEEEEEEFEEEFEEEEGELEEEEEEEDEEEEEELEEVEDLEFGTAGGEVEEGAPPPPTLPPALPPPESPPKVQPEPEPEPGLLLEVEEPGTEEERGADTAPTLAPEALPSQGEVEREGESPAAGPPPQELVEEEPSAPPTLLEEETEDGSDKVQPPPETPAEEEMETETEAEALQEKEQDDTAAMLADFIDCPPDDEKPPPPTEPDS

## GRKKRRQRRRGGMVEFRWSCPGRRKAKA [PIP1]
[1]
  estrogen response synergistically activated by PELP1 and G9a (ERE-luciferase): inhibited
PELP1-G9a complex
  disruption of PELP1 interaction with G9a/EHMT2: disrupted by the addition of either of the two peptides in a dose-dependent manner
ZR75 cells
  apoptosis by TUNEL assay: induces apoptosis
PELP1
  affinity to bind to PELP1 in peptide pull-down: higher affinity to bind to PELP1 than PIP2
